These are literature values, as cited in patent US10913844B2, “Plasticized thermoset resin, and associated cured resin, method of curing, and article comprising cured resin” (The University of Massachusetts, priority 2016, dated 2021).

The conditions of this series: solvent furfural.

`C1N2CN3CN1CN(C2)C3` [HMTA, hexamethylenetetramine]: the “solubility of HMTA in furfural” value is reported as “less than two”.
